The values below come from patent publication US10632115B2, “Use of a statin compound as local drug for treating obesity, diabetes, hypertension and hyperlipemia” (Peking University Third Hospital, priority 2015, dated 2020).

For experiment [1] the following is noted: oral atorvastatin 10 mg/day, simvastatin 40 mg/day; cited from earlier work.
Experiment [2] concerns diabetic rats. Nature of the experiment: Fasting blood glucose assay in diabetic rats after single intraosseous statin injection. The experiment is classed as in vivo, rat. Particulars: 1-14 weeks after single intraosseous injection (fluvastatin 8 mg, atorvastatin 4 mg, rosuvastatin 2 mg); tail blood, glucose meter.
Procedure: 36 three-month-old male SD rats (250-300 g) rats were accommodated for one week, in accordance with standard procedures of diabetic rat model, intraperitoneal injection of streptozotocin (STZ, Sigma Company) 40 mg/kg, the next day administration of high fat diet (purchased from Institute of Zoology, recipe: 68.5% base stock, lard 20%, 10% sucrose, 1% cholesterol and 0.5% porcine bile salts).
Two months later, all the rats were abnormally elevated blood glucose (above 19.5 mmol/L), indicate a successful model (Zhouguang Xing animal models of human disease replication methodology Shanghai Science and Technology Literature Press, 2008: 167-168 SHI Xin animal models of human disease People's Health Press, 2008: 301-305). […] Bone wax pinhole puncture closure avoiding leakage and sutured wounds.
After the rats were fasted 6 h, take one drop of blood (about 50 ul) from the rat tail and placed in the blood sugar test paper (Roche), 2 seconds later, fasting blood glucose were determinated by Roche glucose meter (ACCU-CHEK Performa). […]
Experiment [3] has as its system type 2 diabetes patients. The following applies: oral atorvastatin 10 mg/d for 16 weeks added to conventional antidiabetic; vs control group; cited from earlier work.

As for `CC(C)c1c(C(=O)Nc2ccccc2)c(-c2ccccc2)c(-c2ccc(F)cc2)n1CC[C@@H](O)C[C@@H](O)CC(=O)O` [atorvastatin], the effect on diabetes result in experiment [1] is reported as “no effect”. In addition, in experiment [2], the fasting blood glucose result is “significantly reduced”. In addition, the blood glucose entry in experiment [3] is reported as “much better than the control group”.

As for `CC(C)c1nc(N(C)S(C)(=O)=O)nc(-c2ccc(F)cc2)c1/C=C/[C@@H](O)C[C@@H](O)CC(=O)O` [rosuvastatin], the fasting blood glucose result in experiment [2] is recorded as “significantly reduced”.
